Data: paper PMC5218480 (PLoS ONE, 2017)

Test system: MV-4-11 cells
Experiment: Gene expression microarray analysis (Affymetrix PrimeView) and GSEA
Format: cell-based, human
Parameters: RFU PODN (11730768_x_at) / Fold change /veh PODN (11730768_x_at) / RFU LINC00158 (11744669_a_at) / Fold change /veh LINC00158 (11744669_a_at) / RFU DUSP10 (11751237_a_at) / Fold change /veh DUSP10 (11751237_a_at) / RFU ID3 (11757404_x_at) / Fold change /veh ID3 (11757404_x_at) / RFU PLEKHG5 (11737974_s_at) / Fold change /veh PLEKHG5 (11737974_s_at) / RFU LRRC4B (11730491_at) / Fold change /veh LRRC4B (11730491_at) / RFU GIMAP4 (11747438_a_at) / Fold change /veh GIMAP4 (11747438_a_at) / RFU KRT8 (11758183_x_at) / Fold change /veh KRT8 (11758183_x_at) / RFU CNN1 (11734310_a_at) / Fold change /veh CNN1 (11734310_a_at) / RFU VPS37D (11726825_at) / Fold change /veh VPS37D (11726825_at) / RFU C10orf10 (11716522_x_at) / Fold change /veh C10orf10 (11716522_x_at) / RFU KIR2DL2 /// KIR2DL4 /// KIR2DL5A /// KIR2DL5B /// KIR2DS1 /// KIR2DS2 /// KIR2DS3 /// KIR2DS4 /// KIR3DL3 /// KIR3DL3 /// KIR3DS1 (11738374_at) / Fold change /veh KIR2DL2 /// KIR2DL4 /// KIR2DL5A /// KIR2DL5B /// KIR2DS1 /// KIR2DS2 /// KIR2DS3 /// KIR2DS4 /// KIR3DL3 /// KIR3DL3 /// KIR3DS1 (11738374_at) / RFU C1QL1 (11718748_at) / Fold change /veh C1QL1 (11718748_at) / RFU TMPRSS4 (11747572_a_at) / Fold change /veh TMPRSS4 (11747572_a_at) / RFU HAMP (11756126_x_at) / Fold change /veh HAMP (11756126_x_at) / RFU RNFT2 (11725882_a_at) / Fold change /veh RNFT2 (11725882_a_at) / RFU NR4A2 (11747474_a_at) / Fold change /veh NR4A2 (11747474_a_at) / RFU ABCC12 (11746883_a_at) / Fold change /veh ABCC12 (11746883_a_at) / RFU TMEM136 (11760407_x_at) / Fold change /veh TMEM136 (11760407_x_at) / RFU CLDN22 /// WWC2 (11732394_at) / Fold change /veh CLDN22 /// WWC2 (11732394_at) / RFU HLA-DPB1 (11760878_x_at) / Fold change /veh HLA-DPB1 (11760878_x_at) / RFU SPINT1 (11716480_a_at) / Fold change /veh SPINT1 (11716480_a_at) / RFU GAP43 (11754022_s_at) / Fold change /veh GAP43 (11754022_s_at) / RFU A4GNT (11735810_at) / Fold change /veh A4GNT (11735810_at) / RFU PRB3 (11715151_x_at) / Fold change /veh PRB3 (11715151_x_at) / RFU TUBB4B (11761932_at) / Fold change /veh TUBB4B (11761932_at) / RFU CAPN14 (11732068_a_at) / Fold change /veh CAPN14 (11732068_a_at) / RFU TMCC2 (11721928_a_at) / Fold change /veh TMCC2 (11721928_a_at) / RFU IRGQ (11745062_a_at) / Fold change /veh IRGQ (11745062_a_at) / RFU FAM174B (11720279_a_at) / Fold change /veh FAM174B (11720279_a_at) / RFU TMPRSS4 (11748680_a_at) / Fold change /veh TMPRSS4 (11748680_a_at) / RFU FAM212B (11763350_a_at) / Fold change /veh FAM212B (11763350_a_at) / RFU PLEKHG5 (11743358_a_at) / Fold change /veh PLEKHG5 (11743358_a_at) / RFU ZSCAN30 (11745921_a_at) / Fold change /veh ZSCAN30 (11745921_a_at) / RFU CMKLR1 (11741424_a_at) / Fold change /veh CMKLR1 (11741424_a_at) / RFU LOC101060620 /// MAPK8IP1 (11723275_at) / Fold change /veh LOC101060620 /// MAPK8IP1 (11723275_at) / RFU SPTSSB (11747773_x_at) / Fold change /veh SPTSSB (11747773_x_at) / RFU PRSS12 (11739890_at) / Fold change /veh PRSS12 (11739890_at) / RFU BIN1 (11741810_x_at) / Fold change /veh BIN1 (11741810_x_at) / RFU WNT11 (11732464_a_at) / Fold change /veh WNT11 (11732464_a_at) / RFU C10orf10 (11716521_a_at) / Fold change /veh C10orf10 (11716521_a_at) / RFU C5orf56 (11738089_at) / Fold change /veh C5orf56 (11738089_at) / RFU CYB561 (11721691_x_at) / Fold change /veh CYB561 (11721691_x_at) / RFU ANKRD19P (11752326_a_at) / Fold change /veh ANKRD19P (11752326_a_at) / RFU OR2T12 /// OR2T33 /// OR2T8 (11738714_s_at) / Fold change /veh OR2T12 /// OR2T33 /// OR2T8 (11738714_s_at) / RFU VCAN (11748164_a_at) / Fold change /veh VCAN (11748164_a_at) / RFU JSRP1 (11732532_at) / Fold change /veh JSRP1 (11732532_at) / RFU KRTAP10-11 (11738290_x_at) / Fold change /veh KRTAP10-11 (11738290_x_at) / RFU MYO3A (11730013_a_at) / Fold change /veh MYO3A (11730013_a_at) / RFU EBF3 (11725865_a_at) / Fold change /veh EBF3 (11725865_a_at) / RFU CAMK2N1 (11719241_x_at) / Fold change /veh CAMK2N1 (11719241_x_at) / RFU C5orf56 (11738088_a_at) / Fold change /veh C5orf56 (11738088_a_at) / RFU OLFML3 (11715873_a_at) / Fold change /veh OLFML3 (11715873_a_at) / RFU LOC100653217 /// NTM (11731650_a_at) / Fold change /veh LOC100653217 /// NTM (11731650_a_at) / RFU MAPK11 (11762145_a_at) / Fold change /veh MAPK11 (11762145_a_at) / RFU FIZ1 (11724087_x_at) / Fold change /veh FIZ1 (11724087_x_at) / RFU OASL (11726364_x_at) / Fold change /veh OASL (11726364_x_at) / RFU SOX15 (11748057_x_at) / Fold change /veh SOX15 (11748057_x_at) / RFU CD79A (11719716_a_at) / Fold change /veh CD79A (11719716_a_at) / RFU HIST1H1D (11736915_at) / Fold change /veh HIST1H1D (11736915_at) / RFU CASKIN2 (11723855_a_at) / Fold change /veh CASKIN2 (11723855_a_at) / RFU LOC730098 (11760151_x_at) / Fold change /veh LOC730098 (11760151_x_at) / RFU OR4N2 (11742367_at) / Fold change /veh OR4N2 (11742367_at) / RFU PRRT2 (11749266_a_at) / Fold change /veh PRRT2 (11749266_a_at) / RFU SNX32 (11753110_a_at) / Fold change /veh SNX32 (11753110_a_at) / RFU CDHR5 (11726645_a_at) / Fold change /veh CDHR5 (11726645_a_at) / RFU RCAN1 (11760418_a_at) / Fold change /veh RCAN1 (11760418_a_at) / RFU FAM167A (11723789_a_at) / Fold change /veh FAM167A (11723789_a_at) / RFU FAM26E (11764081_at) / Fold change /veh FAM26E (11764081_at) / RFU ISYNA1 (11749810_s_at) / Fold change /veh ISYNA1 (11749810_s_at) / RFU ACY1 (11761880_at) / Fold change /veh ACY1 (11761880_at) / RFU 11764098_at / Fold change /veh 11764098_at / RFU SAMD14 (11745864_x_at) / Fold change /veh SAMD14 (11745864_x_at) / RFU NPB (11741838_a_at) / Fold change /veh NPB (11741838_a_at) / RFU TMPRSS6 (11731388_a_at) / Fold change /veh TMPRSS6 (11731388_a_at) / RFU KRTAP10-2 (11738614_at) / Fold change /veh KRTAP10-2 (11738614_at) / RFU ARHGAP8 /// PRR5-ARHGAP8 (11727945_x_at) / Fold change /veh ARHGAP8 /// PRR5-ARHGAP8 (11727945_x_at) / RFU KRTAP5-7 /// NADSYN1 (11734609_at) / Fold change /veh KRTAP5-7 /// NADSYN1 (11734609_at) / RFU RASL12 (11751679_a_at) / Fold change /veh RASL12 (11751679_a_at) / RFU CDKN2B (11736163_a_at) / Fold change /veh CDKN2B (11736163_a_at) / RFU PRF1 (11729649_at) / Fold change /veh PRF1 (11729649_at) / RFU, ZNF638 /// ZNF638-IT1 / Fold change vs veh, ZNF638 /// ZNF638-IT1 / RFU, PANK3 / Fold change vs veh, PANK3 / RFU, SH3YL1 / Fold change vs veh, SH3YL1 / RFU, ZEB2 / Fold change vs veh, ZEB2 / RFU, NRIP1 / Fold change vs veh, NRIP1 / RFU, PTTG1IP / Fold change vs veh, PTTG1IP / RFU, CAPN2 / Fold change vs veh, CAPN2 / RFU, MED14 / Fold change vs veh, MED14 / RFU, SNORA58 / Fold change vs veh, SNORA58 / RFU, C1orf63 / Fold change vs veh, C1orf63 / RFU, LRRFIP1 / Fold change vs veh, LRRFIP1 / RFU, NDUFAF7 / Fold change vs veh, NDUFAF7 / RFU, SLC12A2 / Fold change vs veh, SLC12A2 / RFU, IBTK / Fold change vs veh, IBTK / RFU, ESF1 / Fold change vs veh, ESF1 / Fold change vs veh, TMEM50B / RFU, TAOK1 / Fold change vs veh, TAOK1 / RFU, ACBD3 / Fold change vs veh, ACBD3 / RFU, TMA16 / Fold change vs veh, TMA16 / RFU, RWDD3 / Fold change vs veh, RWDD3 / RFU, BCAT1 / Fold change vs veh, BCAT1 / RFU, EDEM3 / Fold change vs veh, EDEM3 / RFU, TMEM33 / Fold change vs veh, TMEM33 / RFU, WDR75 / Fold change vs veh, WDR75 / RFU, AHCTF1 / Fold change vs veh, AHCTF1 / RFU, TFRC / Fold change vs veh, TFRC / RFU, ZDHHC17 / Fold change vs veh, ZDHHC17 / RFU, NOM1 / Fold change vs veh, NOM1 / RFU, ARL8B / Fold change vs veh, ARL8B / RFU, ZBTB11 / Fold change vs veh, ZBTB11 / RFU, TAMM41 / Fold change vs veh, TAMM41 / RFU, KIAA1704 /// LOC100996395 / Fold change vs veh, KIAA1704 /// LOC100996395 / RFU, ING1 / Fold change vs veh, ING1 / RFU, TRMT61B / Fold change vs veh, TRMT61B / RFU, FUBP3 / Fold change vs veh, FUBP3 / RFU, TP53 / Fold change vs veh, TP53 / RFU, TNKS2 / Fold change vs veh, TNKS2 / RFU, ZFP14 / Fold change vs veh, ZFP14 / RFU, ACTR2 / Fold change vs veh, ACTR2 / RFU, PPP3R1 / Fold change vs veh, PPP3R1 / RFU, PIK3R1 / Fold change vs veh, PIK3R1 / RFU, HNRNPA1 / Fold change vs veh, HNRNPA1 / RFU, RNF170 / Fold change vs veh, RNF170 / RFU, ZNF28 / Fold change vs veh, ZNF28 / RFU, RNGTT / Fold change vs veh, RNGTT / RFU, OGT / Fold change vs veh, OGT / RFU, BRD1 / Fold change vs veh, BRD1 / RFU, MARS / Fold change vs veh, MARS / RFU, ZNF655 / Fold change vs veh, ZNF655 / RFU, FAHD1 / Fold change vs veh, FAHD1 / RFU, BDP1 / Fold change vs veh, BDP1 / RFU, LRRCC1 / Fold change vs veh, LRRCC1 / RFU, ARID1A / Fold change vs veh, ARID1A / RFU, ZNF146 / Fold change vs veh, ZNF146 / RFU, ZNF330 / Fold change vs veh, ZNF330 / RFU, GPN3 / Fold change vs veh, GPN3 / RFU, C9orf123 / Fold change vs veh, C9orf123 / RFU, N4BP2L2 / Fold change vs veh, N4BP2L2 / RFU, ARFIP1 / Fold change vs veh, ARFIP1 / RFU, FAM179B / Fold change vs veh, FAM179B / RFU, BCL10 / Fold change vs veh, BCL10 / RFU, UHRF1BP1L / Fold change vs veh, UHRF1BP1L / RFU, BET1 / Fold change vs veh, BET1 / RFU, CNOT2 / Fold change vs veh, CNOT2 / RFU, ZNF268 / Fold change vs veh, ZNF268 / Fold change vs veh, ZNF507 / RFU, DGCR2 / Fold change vs veh, DGCR2 / RFU, WDSUB1 / Fold change vs veh, WDSUB1 / Fold change vs veh, HSP90B1 /// MIR3652 / RFU, ADSS / Fold change vs veh, ADSS / RFU, GK / Fold change vs veh, GK / RFU, ZNF148 / Fold change vs veh, ZNF148 / RFU, TAF9 / Fold change vs veh, TAF9 / RFU, SLC1A5 / Fold change vs veh, SLC1A5 / RFU, SLMO2 / Fold change vs veh, SLMO2 / RFU, ABCC4 / Fold change vs veh, ABCC4 / RFU, LOC101060439 /// RAP1B / Fold change vs veh, LOC101060439 /// RAP1B / RFU, RFX7 / Fold change vs veh, RFX7 / RFU, GTPBP10 / Fold change vs veh, GTPBP10 / RFU, CNEP1R1 / Fold change vs veh, CNEP1R1 / RFU, BIVM-ERCC5 /// ERCC5 / Fold change vs veh, BIVM-ERCC5 /// ERCC5 / RFU, ILF3 / Fold change vs veh, ILF3 / RFU 11762660_at / Fold change /veh 11762660_at / RFU VCAN (11757783_s_at) / Fold change /veh VCAN (11757783_s_at) / RFU DDX43 (11728927_at) / Fold change /veh DDX43 (11728927_at) / RFU KRT8 (11758188_x_at) / Fold change /veh KRT8 (11758188_x_at) / RFU NKD1 (11759106_at) / Fold change /veh NKD1 (11759106_at) / RFU SRD5A1 (11742802_a_at) / Fold change /veh SRD5A1 (11742802_a_at) / RFU TPSAB1 /// TPSB2 (11721975_s_at) / Fold change /veh TPSAB1 /// TPSB2 (11721975_s_at) / RFU GSTM3 (11746129_a_at) / Fold change /veh GSTM3 (11746129_a_at) / RFU IL23R (11737362_x_at) / Fold change /veh IL23R (11737362_x_at) / RFU TMEM51 (11727254_a_at) / Fold change /veh TMEM51 (11727254_a_at) / RFU PIWIL2 (11732686_x_at) / Fold change /veh PIWIL2 (11732686_x_at) / RFU ORM1 (11744905_x_at) / Fold change /veh ORM1 (11744905_x_at) / RFU CCDC152 (11743942_at) / Fold change /veh CCDC152 (11743942_at) / RFU ECM1 (11717891_a_at) / Fold change /veh ECM1 (11717891_a_at) / RFU IL23R (11748794_a_at) / Fold change /veh IL23R (11748794_a_at) / RFU TNFAIP8L3 (11732012_x_at) / Fold change /veh TNFAIP8L3 (11732012_x_at) / RFU MBOAT4 (11741988_at) / Fold change /veh MBOAT4 (11741988_at) / RFU 11764193_at / Fold change /veh 11764193_at / RFU TMEM53 (11763286_at) / Fold change /veh TMEM53 (11763286_at) / RFU MAGEB2 (11727129_at) / Fold change /veh MAGEB2 (11727129_at) / RFU TMEM200A (11744735_a_at) / Fold change /veh TMEM200A (11744735_a_at) / RFU CCDC152 (11751479_a_at) / Fold change /veh CCDC152 (11751479_a_at) / RFU FAM211A (11726209_a_at) / Fold change /veh FAM211A (11726209_a_at) / RFU RGS16 (11746705_a_at) / Fold change /veh RGS16 (11746705_a_at) / RFU VCAN (11755009_s_at) / Fold change /veh VCAN (11755009_s_at) / RFU RHOB (11743442_s_at) / Fold change /veh RHOB (11743442_s_at) / RFU RGS16 (11720943_a_at) / Fold change /veh RGS16 (11720943_a_at) / RFU RGS16 (11720944_at) / Fold change /veh RGS16 (11720944_at) / RFU, VPS4B / Fold change vs veh, VPS4B / RFU, CREB1 / Fold change vs veh, CREB1 / RFU, DNAJC13 / Fold change vs veh, DNAJC13 / RFU, GNAQ / Fold change vs veh, GNAQ / RFU, CDK5R1 / Fold change vs veh, CDK5R1 / RFU, ZRANB3 / Fold change vs veh, ZRANB3 / RFU, CUL4A / Fold change vs veh, CUL4A / RFU, CCNY / Fold change vs veh, CCNY / RFU, UFL1 / Fold change vs veh, UFL1 / RFU, COG3 / Fold change vs veh, COG3 / RFU, DIAPH2 / Fold change vs veh, DIAPH2 / RFU, SKA2 / Fold change vs veh, SKA2 / RFU, AFF3 / Fold change vs veh, AFF3 / RFU, LMF1 / Fold change vs veh, LMF1 / RFU, IPO11 / Fold change vs veh, IPO11 / RFU, DFFB / Fold change vs veh, DFFB / RFU, FOXP1 / Fold change vs veh, FOXP1 / RFU, CARD8 / Fold change vs veh, CARD8 / RFU, STRN3 / Fold change vs veh, STRN3 / RFU, ADK / Fold change vs veh, ADK / RFU, RASSF2 / Fold change vs veh, RASSF2 / RFU, WIPF1 / Fold change vs veh, WIPF1 / RFU, LARP1B / Fold change vs veh, LARP1B / RFU, RASA1 / Fold change vs veh, RASA1 / RFU, RB1 / Fold change vs veh, RB1 / RFU, PPFIA1 / Fold change vs veh, PPFIA1 / RFU, MAT2A / Fold change vs veh, MAT2A / RFU, CCT5 / Fold change vs veh, CCT5 / RFU, WDR92 / Fold change vs veh, WDR92 / RFU, CUX1 / Fold change vs veh, CUX1 / RFU, TTC7A / Fold change vs veh, TTC7A / RFU, TMEM135 / Fold change vs veh, TMEM135 / RFU, DEPTOR / Fold change vs veh, DEPTOR / RFU, CPM / Fold change vs veh, CPM / RFU, DNAJB6 / Fold change vs veh, DNAJB6 / RFU, CACNA2D3 / Fold change vs veh, CACNA2D3 / RFU, DTX4 / Fold change vs veh, DTX4 / RFU, TFCP2 / Fold change vs veh, TFCP2 / RFU, GMCL1 /// GMCL1P1 / Fold change vs veh, GMCL1 /// GMCL1P1 / RFU, AEBP2 / Fold change vs veh, AEBP2 / RFU, SNHG1 /// SNORD22 /// SNORD25 /// SNORD26 /// SNORD27 /// SNORD28 /// SNORD29 /// SNORD31 / Fold change vs veh, SNHG1 /// SNORD22 /// SNORD25 /// SNORD26 /// SNORD27 /// SNORD28 /// SNORD29 /// SNORD31 / Fold change (Aza/veh), C12orf56 (ProbeSet 11735607_a_at) / Fold change (ACY-1035/veh), C12orf56 (ProbeSet 11735607_a_at) / Fold change (Aza/veh), FGFR1OP (ProbeSet 11751329_s_at) / Fold change (ACY-1035/veh), FGFR1OP (ProbeSet 11751329_s_at) / Fold change (Aza/veh), VPS36 (ProbeSet 11739960_a_at) / Fold change (ACY-1035/veh), VPS36 (ProbeSet 11739960_a_at) / RFU SYPL1 (11715823_x_at) / Fold change /veh SYPL1 (11715823_x_at) / RFU IGFBP7 (11715501_s_at) / Fold change /veh IGFBP7 (11715501_s_at) / RFU REEP3 (11722064_at) / Fold change /veh REEP3 (11722064_at) / RFU IGLL1 (11728026_x_at) / Fold change /veh IGLL1 (11728026_x_at): dose or concentration left out as unconfirmed
Settings: ProbeSet 11718569_a_at; LIST D

**Q.** Nc1ncn([C@@H]2O[C@H](CO)[C@@H](O)[C@H]2O)c(=O)n1 [azacitidine] was tested. Which “Fold change vs veh, WIPF1” value did it give?
**A.** The value was 0.72.
